According to PMC7269032, “Chiral 4-O-acylterpineol as transdermal permeation enhancers: insights of the enhancement mechanisms of a transdermal enantioselective delivery system for flurbiprofen” (Drug Delivery, 2020):

Experiments:
[1] = In vitro permeation experiment of FP drug-in-adhesive patches in two-chamber diffusion cells; type: in vitro ADME, rabbit; conditions: for ER (Q24h with enhancer/Q24h without enhancer) for R-FP / Tlag of R-FP / Js of R-FP: permeant R-FP; for ER (Q24h with enhancer/Q24h without enhancer) for R-FP / Tlag of R-FP / Js of R-FP / ER (Q24h with enhancer/Q24h without enhancer) for S-FP / Tlag of S-FP / Js of S-FP / ER (Q24h with enhancer/Q24h without enhancer) for SR-FP / Tlag of SR-FP / Js of SR-FP: patch 5% drug (w/w); for ER (Q24h with enhancer/Q24h without enhancer) for R-FP / ER (Q24h with enhancer/Q24h without enhancer) for S-FP / ER (Q24h with enhancer/Q24h without enhancer) for SR-FP: enhancer equimolar to 5% 4-TER; for Tlag of R-FP / Js of R-FP / Tlag of S-FP / Js of S-FP / Tlag of SR-FP / Js of SR-FP: enhancer equimolar to 5% 4-TER (control: no enhancer); for Js of R-FP / Js of S-FP / Js of SR-FP: mean ± SD, n = 4; for ER (Q24h with enhancer/Q24h without enhancer) for S-FP / Tlag of S-FP / Js of S-FP: permeant S-FP; for ER (Q24h with enhancer/Q24h without enhancer) for SR-FP / Tlag of SR-FP / Js of SR-FP: permeant SR-FP
Text: Male, Japanese big-eared rabbits weighting 2.5–3.0 kg were purchased from the animal experimental center of North China University of Science and Technology. The experimental process was in accordance with the ‘Ethical Guide for Laboratory Animal Investigation’ and was approved by the Animal Experimental Center Committee of North China University of Science and Technology. All efforts were made to minimize animal suffering and to limit the number of animals used.
The hair of back skin was removed by clipper and electrical shaver carefully when the rabbits were anesthetized with ether. Full thickness of back skin was excised after the rabbit was sacrificed by injecting air into the ear veins, and the subcutaneous fat tissue was carefully removed using the surgical scissor and scalpel. The integrity of the skin was confirmed by microscopic observation method. The treated rabbit skin was cut into a size of 1.5 cm × 1.5 cm and stored at –80 °C until use. Before use, it needed to be immersed in physiological saline for 20 min to thaw.
Drug-in-adhesive patch (drug loading of 5% by adhesive) was prepared by using solvent evaporation method. An appropriate amount of FP was dissolved in a suitable amount of ethyl acetate, which was later added to the adhesive and mixed thoroughly with a mechanical stirrer. The resulting solution was coated onto release liner (Scotch Pak® 9744, 3M, USA) by using lab coating unit (6025, BLD Instruments Co. Ltd., Guangdong, China). The coated laminate was dried at 50 °C for 15 min. After the solvent had been removed, it was covered with backing laminate (Scotch Pak® 9732, 3M).
Modified two-chamber diffusion cells with an effective diffusion area of 0.95 cm^2 were employed in the in vitro permeation experiment. The cells were kept at 32 °C by the circulated water bath and stirred with magnetic bars at 400 rpm. The dermis side of the skin was attached to one-half of the side-by-side diffusion cells, the FP patch was pressed on the skin with the adhesive side facing the SC, and pH 7.4 PBS was used as the receptor medium. At predetermined time points (2, 4, 6, 8, 10, 12 and 24 h), the receptor solution of 2.0 mL was withdrawn and equal volume PBS was added to maintain a constant volume of receptor solution.
The cumulative amount of each drug permeating per unit area (Q) versus time was plotted. Q24h=(3.5Ci+2.0∑i=1n−1Ci−1)/A
Q was the cumulative skin permeation amount. Ci was the concentration in the receiver compartment at time i, A was the effective diffusion area of diffusion.
The steady-state flux (Js, µg/cm^2/h) was calculated from the slope of linear region of the plot. The lag-time was determined by extrapolating the linear portion of the curve to the abscissa. Js=dQr/Adt
Enhancement ratio (ER) was used to evaluate the activity of the enhancers, which is the ratio of Q24h with enhancer to Q24h without enhancer. ER=Q24h(with enhancer)/Q24h(without enhancer)

[2] = In vivo pharmacokinetic study, transdermal patch administration; parameters: species or system rabbit; conditions: rabbits, SR-FP patch with 5% enhancer or without (control); for V of R-FP: analyte R-; for V of S-FP: analyte S-
Protocol: Thirty-six male rabbits weighing 2.5 kg were divided into six groups, and the back skin was intact without erythema. For patch administration studies, patches without or with enhancers (120 mg/kg) were stuck to the shaved area of the rabbits. They were administered as follows: (1) control group: only the SR-FP; (2) enhancer group A: prepared SR-FP patch with 5% d-4-TER; (3) enhancer group B: prepared SR-FP patch with 5% d-4-T-dC18; (4) enhancer group C: prepared SR-FP patch with 5% l-4-T-dC18; (5) enhancer group D: prepared S-FP patch with 5% d-4-T-dC18; (6) enhancer group E: prepared R-FP patch with 5% d-4-T-dC18. In order to prevent the patches fallen off, gauze and medical tape were used to fix the patches. The blood from ear vein of rabbit was collected 0.5 mL at 0.5, 1, 2, 4, 6, 8, 12, 16, 20, 24, 26, 28, 30, 32, 36 and 48 h, and the patch was removed after 24 h, then the residual drug was wiped with physiological saline. The sample was processed by the same method as IV. All animal studies were carried out in accordance with the NIH Guidelines for the Care and Use of Laboratory Animals and were also approved by the Life Science Research Center of North China University of Science and Technology.
After being thawed and equilibrated to room temperature, an aliquot (100 μL) of plasma sample was spiked with […] (10 μL) of 40.0 μg/mL and 400 μL methanol. The samples were vortexed for 5 min and followed by centrifugation at 16,000 rpm for 10 min at 25 °C. After centrifugation, the supernatant was transferred to a clean tube and evaporated to dryness at 40 °C under a gentle stream of nitrogen. The dried samples were reconstituted with 100 μL mobile phase, vortexed and centrifuged before analysis.
Pharmacokinetic parameters were calculated using WinNonlin® software (Pharsight Corporation, San Diego, CA, USA) based on noncompartmental model, including the maximal plasma drug concentration (Cmax), the time to reach Cmax (Tmax) which were obtained from the observed data, the area under the time–concentration curve from time 0 to time t (AUC0–t) of distribution which was calculated using the linear trapezoidal rule, the mean residence time (MRT), the plasma clearance (Cl) and the apparent volume(V). Enhancement factor (Ef) was calculated from the following equation: Ef=AUC0−t(with enhancer)/AUC0−t(without enhancer)
The concentrations of drugs in the receptor medium or rabbit plasma were determined using a validated HPLC method. The HPLC system was equipped with a Shimadzu HPLC apparatus, including an LC-20AT pump, a SIL20A syringe, an SPD-20A detector, and a CTO-20A column oven. The propylparaben was used as an internal standard, and the flow rate of chromatographic analysis was set 1.0 mL/min. For in vitro analysis of SR-FP, thermo (USA) C18 column (150 mm × 4.6 mm, 5 μm particle) maintained at 40 °C was used to elute SR-FP, the mobile phase was used methanol and 1% aqueous glacial acetic acid (60:40, v/v) and the wavelength was set at 247 nm. The HPLC conditions of S-FP and R-FP were as follows: The column was CHIRALPAK®IA (4.6 mm × 250 mml, 5 μm particle diameter) of DAOCEL (Shanghai, China). The mobile phase consisted of acetonitrile and trifluoroacetic acid (0.05%, 50:50, v/v), the wavelength was set at 254 nm. For in vivo analysis of S-FP and R-FP, the mobile phase consisted of acetonitrile and trifluoroacetic acid (0.05%, 35:65, v/v), and other conditions were the same to in vitro analysis.
Absolute bioavailability (F) was calculated by the following equation: F=AUCpatch·Dosei.v./AUCi.v.·Dosepatch

Row | Structure (SMILES) | ER (Q24h with enhancer/Q24h without enhancer) for R-FP [1] | Tlag of R-FP [1] [h] | Js of R-FP [1] [μg/cm^2/h] | ER (Q24h with enhancer/Q24h without enhancer) for S-FP [1] | Tlag of S-FP [1] [h] | Js of S-FP [1] [μg/cm^2/h] | ER (Q24h with enhancer/Q24h without enhancer) for SR-FP [1] | Tlag of SR-FP [1] [h] | Js of SR-FP [1] [μg/cm^2/h] | V of R-FP [2] [L] | V of S-FP [2] [L] | cumulative transport of SR-FP at 24 h ([1]; 3% enhancer level (w/w)) [μg/cm^2] | cumulative transport of SR-FP at 24 h ([1]; 5% enhancer level (w/w)) [μg/cm^2]
1 | CCCCCCC(=O)OC1(C(C)C)CC=C(C)CC1 (stereo not drawn) [d-4-T-C7, d-4-methyl-1-(1-methylethyl)-3-cyclohexen-1-yl heptanoate] | 1.96 | 2.40 | 4.40 ± 1.42 | 1.69 | 2.91 | 4.39 ± 0.49 | 2.14 | 3.74 | 14.46 ± 1.52 | – | – | – | –
2 | CCCCCCCCCCCCCC(=O)OC1(C(C)C)CC=C(C)CC1 (stereo not drawn) [d-4-T-C14, d-4-methyl-1-(1-methylethyl)-3-cyclohexen-1-yl tetradecanoate] | 3.19 | 3.98 | 8.16 ± 0.84 | 3.53 | 2.04 | 7.75 ± 1.68 | 2.85 | 3.58 | 18.79 ± 3.81 | – | – | – | –
3 | CCCCCCCCC=CCCCCCCCC(=O)OC1(C(C)C)CC=C(C)CC1 (stereo not drawn) [d-4-T-dC18, d-4-methyl-1-(1-methylethyl)-3-cyclohexen-1-yl octadec-9-enoate] | 4.43 | 3.95 | 11.81 ± 1.23 | 4.13 | 4.08 | 10.99 ± 2.17 | 2.77 | 1.85 | 17.57 ± 4.13 | 139.60 ± 34.29 | 92.94 ± 28.69 | – | –
4 | CC1=CCC(O)(C(C)C)CC1 (stereo not drawn) [d-4-TER, d-4-terpineol, reference compound] | 2.74 | 3.58 | 7.34 ± 2.51 | 2.97 | 2.45 | 7.60 ± 1.47 | 2.16 | 3.60 | 14.43 ± 3.62 | 251.59 ± 56.91 | 99.27 ± 18.81 | 168.14 ± 19.95 | 266.01 ± 58.81
